# Inconclusive results are not listed. Active and inactive are the calls of the source.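 Rule for the calls: active = fitted curve of rescue activity rises past 40% within the tested concentration range, in every replicate run; inconclusive = replicate runs disagree, some active and some not; inactive = all replicate runs inactive, including effects in the opposite direction.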
# System: not listed separately
# Assay: suppressors of statin-induced myotube ATP loss, dose response, cell-based, differentiated C2C12, luminescence, dry powder (AID 743336)
# Conditions: C2C12 myotubes + simvastatin, ATP luminescence, 48 h; at 18 µM (top of the series)
row,SMILES,rescue activity
1,C[C@H](CO)N1C[C@H](C)[C@H](CN(C)Cc2ccc3c(c2)OCO3)Oc2ccc(NC(=O)CCCCCC(=O)Nc3ccccc3N)cc2CC1=O,27.2% (inactive)

# Same assay, conditions: C2C12 myotubes + simvastatin, ATP luminescence, 48 h; at 19.5 µM (top of the series)
row,SMILES,rescue activity
1,O=C(C[C@H]1CC[C@@H]2[C@H](COC[C@H](O)CN2CCC(F)(F)F)O1)NCc1ccc(Oc2ccccc2)cc1,23.4% (inactive)
2,CN1C(=O)c2cc(NC(=O)c3ccc(F)c(F)c3)ccc2OC[C@H]2O[C@@H](CC(=O)Nc3ccc4c(c3)COC4)CC[C@@H]21,29.3% (inactive)
3,COc1ccc(-c2ccc([C@@H]3[C@@H](C#N)N(C(=O)NC4CCCC4)[C@H]3CO)cc2)cc1,12.8% (inactive)
4,C[C@@H]1CN([C@@H](C)CO)C(=O)c2cc(NC(=O)Cc3cn(C)c4ccccc34)ccc2O[C@H]1CN(C)Cc1ccc(C(=O)Nc2ccccc2N)cc1,29.3% (inactive)
5,Cc1ccc(S(=O)(=O)N(C)C[C@@H]2Oc3ccc(NS(=O)(=O)c4ccc(Cl)cc4)cc3C(=O)N([C@H](C)CO)C[C@@H]2C)cc1,27.2% (inactive)
6,N#C[C@@H]1[C@@H](c2ccccc2-c2cccc(F)c2)[C@H](CO)N1C(=O)NC1CCCC1,35.9% (inactive)
7,N#C[C@H]1[C@H](c2ccc(-c3cccc(F)c3)cc2)[C@@H](CO)N1C(=O)NC1CCCC1,33.1% (inactive)
8,C[C@H](CO)N1C[C@H](C)[C@@H](CN(C)Cc2ccc(Oc3ccccc3)cc2)Oc2c(NC(=O)Nc3cccc4ccccc34)cccc2C1=O,26.8% (inactive)
9,CCCC#Cc1ccc([C@H]2[C@@H](C#N)N(S(=O)(=O)c3cccc(F)c3)[C@H]2CO)cc1,3.48% (inactive)
10,N#C[C@@H]1[C@H](c2ccc(-c3cccc(F)c3)cc2)[C@@H](CO)N1C(=O)NC1CCCC1,-10.7% (inactive)
11,C/C=C/c1ccc([C@H]2[C@@H](CO)N(C(=O)NC3CCCC3)[C@H]2C#N)cc1,5.47% (inactive)
12,N#C[C@H]1[C@@H](c2ccc(-c3cccc(F)c3)cc2)[C@@H](CO)N1C(=O)NC1CCCC1,5.12% (inactive)
13,C[C@H]1CN([C@@H](C)CO)C(=O)c2cc(C#Cc3ccncc3)cnc2O[C@@H]1CN(C)CC1CCCC1,20.2% (inactive)
14,N#C[C@@H]1[C@@H](c2ccc(C3=CCCCC3)cc2)[C@H](CO)N1C(=O)NC1CCCC1,33.7% (inactive)
15,CCCNC(=O)N1[C@H](C#N)[C@@H](c2ccc(C3=CCCCC3)cc2)[C@@H]1CO,37.4% (inactive)
16,N#C[C@H]1[C@@H](c2ccc(-c3cccc(F)c3)cc2)[C@H](CO)N1C(=O)NC1CCCC1,-7.45% (inactive)
17,N#C[C@@H]1[C@@H](c2ccccc2-c2ccc(F)cc2)[C@H](CO)N1C(=O)NC1CCCC1,35.5% (inactive)
18,C[C@H](CO)N1C[C@H](C)[C@H](CN(C)Cc2ccc(C(=O)Nc3ccccc3N)cc2)Oc2ccc(NC(=O)Nc3ccc(F)cc3)cc2CC1=O,-62.1% (inactive)
19,N#C[C@@H]1[C@@H](c2ccc(-c3ccc(F)cc3)cc2)[C@H](CO)N1C(=O)Cc1ccccc1,37.6% (inactive)
20,CCCNC(=O)N1[C@H](CO)[C@H](c2ccccc2)[C@@H]1C#N,-1.71% (inactive)

row,SMILES,rescue activity
1,C[C@@H]1CN([C@H](C)CO)C(=O)Cc2cc(NC(=O)CCCCCC(=O)Nc3ccccc3N)ccc2O[C@H]1CN(C)Cc1ccc(Oc2ccccc2)cc1,30.8% (inactive)
2,C[C@H]1CN([C@@H](C)CO)S(=O)(=O)c2ccc(C#CC3CC3)cc2O[C@H]1CN(C)C(=O)Nc1cc(F)ccc1F,23.2% (inactive)
3,N#C[C@@H]1[C@@H](c2ccc(-c3cccc(F)c3)cc2)[C@@H](CO)N1C(=O)NC1CCCC1,9.41% (inactive)
4,C[C@@H]1CN([C@H](C)CO)C(=O)Cc2cc(NC(=O)C3CCCCC3)ccc2O[C@H]1CN(C)Cc1ccc(Cl)c(Cl)c1,24.8% (inactive)
5,N#C[C@@H]1[C@H](c2ccc(-c3cccc(F)c3)cc2)[C@H](CO)N1C(=O)NC1CCCC1,-9.1% (inactive)
6,CN(C)C(=O)c1cccc(-c2ccc([C@@H]3[C@@H](C#N)N(C(=O)C4CCCC4)[C@@H]3CO)cc2)c1,11.9% (inactive)
7,N#C[C@@H]1[C@@H](c2ccc(C#Cc3cccnc3)cc2)[C@@H](CO)N1C(=O)C1CCCC1,-15.7% (inactive)
8,C[C@@H]1CN([C@H](C)CO)C(=O)Cc2cc(NS(=O)(=O)c3cn(C)cn3)ccc2O[C@@H]1CN(C)Cc1ccc(Cl)c(Cl)c1,34.3% (inactive)
9,C[C@@H]1CN([C@H](C)CO)C(=O)c2cccc(NC(=O)c3nc4ccccc4s3)c2O[C@@H]1CN(C)Cc1ccc(C(=O)Nc2ccccc2N)cc1,-3.35% (inactive)
10,C[C@@H]1CN([C@H](C)CO)C(=O)Cc2cc(NC(=O)CCCCCC(=O)Nc3ccccc3N)ccc2O[C@@H]1CN(C)Cc1ccc(Oc2ccccc2)cc1,-50.8% (inactive)
11,COc1ccc(C#Cc2cnc3c(c2)C(=O)N([C@H](C)CO)C[C@H](C)[C@H](CN(C)Cc2ccccc2)O3)cc1OC,32.2% (inactive)
12,C[C@H](CO)N1C[C@H](C)[C@H](CN(C)Cc2ccc(C(=O)Nc3ccccc3N)cc2)Oc2ccc(N(C)C)cc2C1=O,6.09% (inactive)
13,N#C[C@@H]1[C@@H](c2ccc(-c3cccc(F)c3)cc2)[C@H](CO)N1C(=O)c1cccnc1,7.76% (inactive)
14,N#C[C@H]1[C@H](c2ccc(-c3cccc(F)c3)cc2)[C@H](CO)N1C(=O)NC1CCCC1,29.9% (inactive)
15,COc1ccc(S(=O)(=O)N(C)C[C@H]2Oc3c(NC(=O)Nc4ccccc4)cccc3C(=O)N([C@H](C)CO)C[C@H]2C)cc1,29.2% (inactive)
16,N#C[C@H]1[C@H](c2ccc(C#CCC3CCCC3)cc2)[C@@H](CO)N1C(=O)CN1CCOCC1,28.6% (inactive)
17,O=C(C[C@H]1CC[C@@H]2[C@H](COC[C@@H](O)CN2Cc2ccc(Oc3ccccc3)cc2)O1)N1CCCCC1,22.2% (inactive)
18,N#C[C@H]1[C@H](c2ccc(C#Cc3ccc(F)cc3)cc2)[C@H](CO)N1c1nc(-c2ccccc2)cs1,38.1% (inactive)
19,C[C@H]1CN([C@@H](C)CO)C(=O)c2cc(N(C)C)ccc2O[C@@H]1CN(C)Cc1ccc(C(=O)Nc2ccccc2N)cc1,28.1% (inactive)

# Same assay, conditions: C2C12 myotubes + simvastatin, ATP luminescence, 48 h; at 21 µM (top of the series)
row,SMILES,rescue activity
1,N#C[C@H]1N[C@@H](CO)[C@@H]1c1ccc(-c2cccc(F)c2)cc1,0.836% (inactive)
2,C[C@H](CO)N1C[C@H](C)[C@H](CN(C)Cc2ccc(Oc3ccccc3)cc2)Oc2ccc(NC(=O)CCCCCC(=O)Nc3ccccc3N)cc2CC1=O,-22.7% (inactive)
3,C[C@H]1CN([C@@H](C)CO)C(=O)Cc2cc(NC(=O)CCCCCC(=O)Nc3ccccc3N)ccc2O[C@H]1CN(C)Cc1ccc(C(F)(F)F)cc1,44.5% (inactive)
4,CCCNC(=O)N1[C@@H](C#N)[C@@H](c2ccc(-c3ccccc3F)cc2)[C@@H]1CO,-7.41% (inactive)
5,COCC(=O)N1[C@H](C#N)[C@@H](c2ccc(-c3cccc(F)c3)cc2)[C@@H]1CO,7.78% (inactive)
6,CC(C)CC#Cc1cnc2c(c1)C(=O)N([C@H](C)CO)C[C@H](C)[C@@H](CN(C)C(=O)Cc1ccccc1)O2,-0.381% (inactive)
7,C[C@@H]1CN([C@@H](C)CO)C(=O)Cc2cc(NC(=O)CCCCCC(=O)Nc3ccccc3N)ccc2O[C@@H]1CN(C)Cc1ccc(Oc2ccccc2)cc1,-22.1% (inactive)
8,C[C@H]1CN([C@@H](C)CO)C(=O)Cc2cc(NC(=O)CCCCCC(=O)Nc3ccccc3N)ccc2O[C@@H]1CN(C)Cc1ccc(Oc2ccccc2)cc1,20% (inactive)
9,CCS(=O)(=O)N1[C@H](C#N)[C@@H](c2ccc(-c3cccc(F)c3)cc2)[C@@H]1CO,10.1% (inactive)
10,C[C@H]1CN([C@@H](C)CO)C(=O)Cc2cc(NS(=O)(=O)c3ccc(Cl)cc3)ccc2O[C@@H]1CN(C)CC1CCCCC1,3.09% (inactive)

# System: C2C12 myotubes + simvastatin, ATP luminescence, 48 h
# Assay: as above
# Conditions: not given
row,SMILES,AC40 [µM]
1,C[C@@H]1CN([C@H](C)CO)C(=O)Cc2cc(NS(=O)(=O)c3ccc(Cl)cc3)ccc2O[C@H]1CN(C)Cc1ccccc1,15.3
2,Cc1noc(C)c1S(=O)(=O)Nc1ccc2c(c1)CC(=O)N([C@H](C)CO)C[C@H](C)[C@@H](CN(C)Cc1ccc(C(F)(F)F)cc1)O2,16
3,COc1ccc(S(=O)(=O)Nc2cccc3c2O[C@H](CN(C)C(=O)Nc2ccc(F)cc2)[C@H](C)CN([C@@H](C)CO)C3=O)cc1,14.5
4,N#C[C@@H]1[C@@H](c2ccc(C#CC3CCCC3)cc2)[C@H](CO)N1S(=O)(=O)c1ccccc1,20
5,C[C@H]1CN([C@@H](C)CO)C(=O)Cc2cc(NC(=O)CCCCCC(=O)Nc3ccccc3N)ccc2O[C@H]1CN(C)Cc1ccccc1,13.8
6,C[C@H](CO)N1C[C@H](C)[C@H](CN(C)CC2CCCCC2)Oc2ccc(NC(=O)CCCCCC(=O)Nc3ccccc3N)cc2CC1=O,9.21
7,N#C[C@@H]1[C@@H](c2ccccc2)[C@H](CO)N1S(=O)(=O)c1ccc(-c2ccccc2)cc1,10.6
8,CC(C)=CCC/C(C)=C/CC/C(C)=C/CC/C(C)=C/CO,4.38
9,Cc1ccc(S(=O)(=O)Nc2ccc3c(c2)CC(=O)N([C@@H](C)CO)C[C@@H](C)[C@H](CN(C)Cc2ccc(-c4ccccc4)cc2)O3)cc1,17.5
10,C[C@@H]1CN([C@@H](C)CO)C(=O)c2cc(NS(=O)(=O)c3ccc(Cl)cc3)ccc2O[C@H]1CN(C)C(=O)Nc1cccc2ccccc12,14.6
11,C[C@H]1CN([C@@H](C)CO)C(=O)Cc2cc(NC(=O)Nc3cccc4ccccc34)ccc2O[C@H]1CN(C)Cc1ccc(C(=O)Nc2ccccc2N)cc1,9.64
12,Cc1noc(C)c1S(=O)(=O)Nc1ccc2c(c1)CC(=O)N([C@H](C)CO)C[C@@H](C)[C@@H](CN(C)Cc1ccc(-c3ccccc3)cc1)O2,13.9
13,C[C@@H]1CN([C@@H](C)CO)C(=O)c2cccc(NC(=O)Nc3ccc4c(c3)OCO4)c2O[C@H]1CN(C)Cc1ccc(C(=O)Nc2ccccc2N)cc1,16.2
14,C[C@@H]1CN([C@H](C)CO)C(=O)c2cccc(NC(=O)Nc3ccc4c(c3)OCO4)c2O[C@H]1CN(C)Cc1ccc(C(=O)Nc2ccccc2N)cc1,14.7
15,C[C@H]1CN([C@@H](C)CO)C(=O)c2cc(NC(=O)Nc3cccc4ccccc34)ccc2O[C@H]1CN(C)Cc1ccc(C(=O)Nc2ccccc2N)cc1,13.5
